{"source": "patent US6825340B2", "about": "“Methods and reagents for inactivating ribonucleases” (Ambion, Inc., priority 1998, dated 2004)", "key": {"[1]": {"conditions": "pH 7.0; cited from earlier work"}, "[2]": {"target": "T1, RNase A (Bos taurus, UniProt P61823)", "T1 sequence (P61823 27-150)": "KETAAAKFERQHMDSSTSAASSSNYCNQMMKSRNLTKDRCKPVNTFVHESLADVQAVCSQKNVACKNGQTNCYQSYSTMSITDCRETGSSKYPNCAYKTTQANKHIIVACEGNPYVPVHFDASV", "assay": "RNase A inactivation, mouse total RNA on agarose formaldehyde gel", "type": "biochemical", "procedure": "The non-isotopic assay uses total RNA isolated from mouse as the substrate for the RNase mixture. […] A quantity of 4 μg of total RNA isolated from mouse liver or brain was dissolved in an aqueous solution, usually water or 1 mM sodium citrate (pH 6.6). The treated ribonuclease sample was added to the total RNA and then incubated at 37° C. for 1 or 16 hours, depending on the sensitivity desired for the assay. After incubation, the RNA was fractionated in a formaldehyde 1% agarose gel. The RNA was detected by staining with ethidium bromide and then illuminating the gel with ultraviolet light. The RNA fluoresces in the gel. Untreated total RNA was also fractionated as a control with the test samples for comparative purposes. […] Intact total RNA has two major bands produced by the 28S and 18S ribosomal RNA. […] RNase A, at 200 ng/ml instead of 10 μg/ml, was treated with or without 4 mM DTT in Boshes' solution A at 4° C. for 20 minutes. RNase A activity was then tested by incubating mouse liver total RNA with the treated RNase A at 37° C. for 60 minutes. The mouse RNA was then fractionated by electrophoresis in a 1% agarose formaldehyde gel. […] RNase A was diluted to 154 ng/ml in 1 mM sodium citrate (pH 6.4) or in Boshes' (1970) buffer A. DTT was added to the samples to 4 mM or 20 mM and then incubated at 4° C. or 60° C. for 20 minutes."}, "[3]": {"target": "T1, RNase A", "conditions": "RNase A 10 μg/ml; 4 mM DTT; 4° C. for 20 minutes; cited from earlier work"}, "[4]": {"system": "unknown RNase in alkaline phosphatase storage solution", "assay": "Isotopic assay of RNase activity in alkaline phosphatase storage solution", "type": "biochemical", "conditions": "60° C. for 20 minutes", "procedure": "The isotopic RNase assay uses a radioactive RNA synthesized by in vitro transcription as the RNA substrate. The RNA used in the following examples was 1.9 or 4.0 kb in length. The radioactive RNA was synthesized using a T7 MEGAscript™ transcription kit (Ambion, Inc.). The in vitro transcription reaction mixture contained 1.0 μg of linearized DNA template, 2 μl of 10× transcription buffer, 1 μl of UTP[α-^32P] (800 Ci/mmol), 2 μl of each 75 mM ribonucleotide and 2 μl of the T7 RNA polymerase mix, final volume of 20 μl. The reaction was incubated at 37° C. for 3 hours. The transcript was precipitated with 7.5 M LiCl and resuspended in 0.1 ml of 1 mM sodium citrate (pH 6.6) or RNase free water.\n2 μl of the RNA probe was incubated with the test sample in a final volume of 10 μl for about 16 hours at 37° C. After incubation, the RNA was fractionated in a denaturing 6 M urea 5% acrylamide gel and then the gel was exposed to x-ray film. Untreated RNA was also fractionated as a control with the test samples for comparative purposes. […] RNase activity was indicated by the intensity of the RNA decreasing and by the appearance of smearing below the intact RNA. […]\nA commercial solution of unknown composition to the inventors designed to stabilize the storage of alkaline phosphatase was detected to have RNase activity using the isotopic assay. […]"}}, "data": [{"compound": "O[C@H](CS)[C@H](O)CS", "note": "[DTT, dithiothreitol]", "values": [{"measurement": "redox potential", "setting": "[1]", "result": "−0.33", "unit": "volts"}, {"measurement": "RNase A inactivation", "setting": "[2]; RNase A 154 ng/ml, 4 mM DTT, 4° C. for 20 minutes", "result": "not inactivated"}, {"measurement": "RNase A inactivation", "setting": "[2]; RNase A 154 ng/ml, 4 mM DTT, 60° C. for 20 minutes", "result": "completely inactivated"}, {"measurement": "RNase A inactivation", "setting": "[2]; RNase A 154 ng/ml, 20 mM DTT, 4° C. for 20 minutes", "result": "not inactivated"}, {"measurement": "RNase A inactivation", "setting": "[2]; RNase A 154 ng/ml, 20 mM DTT, 60° C. for 20 minutes", "result": "completely inactivated"}, {"measurement": "RNase A inactivation", "setting": "[2]; RNase A 200 ng/ml, 4 mM DTT, Boshes' solution A, 4° C. for 20 minutes", "result": "not inactivated"}, {"measurement": "RNase A inactivation", "setting": "[2]; RNase A, 20 mM DTT, 60° C. for 20 minutes", "result": "completely inactivated"}, {"measurement": "RNase A activity (Boshes, 1970)", "setting": "[3]", "result": "inhibited"}, {"measurement": "RNase activity of alkaline phosphatase storage solution", "setting": "[4]; 2 mM DTT", "result": "no detectable RNase activity"}, {"measurement": "RNase activity of alkaline phosphatase storage solution", "setting": "[4]; 5 mM DTT", "result": "no detectable RNase activity"}]}]}
